According to paper PMC9482658, “Mechanistic understanding of human SLFN11” (Nature Communications, 2022):

T1: SLFN5 (Homo sapiens, UniProt Q08AF3)
T1 construct: recombinant
T1 sequence (Q08AF3 1-891): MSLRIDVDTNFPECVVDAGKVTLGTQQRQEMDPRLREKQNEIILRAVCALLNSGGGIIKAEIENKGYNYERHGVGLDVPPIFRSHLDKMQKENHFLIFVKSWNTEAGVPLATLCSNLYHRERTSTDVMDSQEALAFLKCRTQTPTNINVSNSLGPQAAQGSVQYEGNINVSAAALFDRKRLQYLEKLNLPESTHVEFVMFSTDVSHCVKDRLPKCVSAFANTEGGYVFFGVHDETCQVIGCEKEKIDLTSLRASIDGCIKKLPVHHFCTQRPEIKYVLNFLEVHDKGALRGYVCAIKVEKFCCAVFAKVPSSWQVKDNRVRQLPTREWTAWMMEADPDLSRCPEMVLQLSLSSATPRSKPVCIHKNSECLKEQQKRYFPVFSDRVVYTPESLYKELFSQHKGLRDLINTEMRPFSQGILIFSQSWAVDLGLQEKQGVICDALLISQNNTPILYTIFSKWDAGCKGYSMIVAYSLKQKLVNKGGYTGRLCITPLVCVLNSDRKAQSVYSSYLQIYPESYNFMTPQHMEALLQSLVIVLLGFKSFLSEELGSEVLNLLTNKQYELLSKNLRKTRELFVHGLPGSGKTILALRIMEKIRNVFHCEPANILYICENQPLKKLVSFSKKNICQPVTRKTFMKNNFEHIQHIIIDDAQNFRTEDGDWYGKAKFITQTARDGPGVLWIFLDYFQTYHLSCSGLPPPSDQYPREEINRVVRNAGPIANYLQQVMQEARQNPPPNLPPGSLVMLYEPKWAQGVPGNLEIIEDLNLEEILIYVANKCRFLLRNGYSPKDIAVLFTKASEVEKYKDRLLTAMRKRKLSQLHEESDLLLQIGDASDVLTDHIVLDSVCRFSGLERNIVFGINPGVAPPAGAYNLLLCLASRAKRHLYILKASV

B1: full-length human SLFN11 E209A (enzyme, UniProt Q7Z7L1 1-901, looked up)
chain: MEANQCPLVVEPSYPDLVINVGEVTLGEENRKKLQKIQRDQEKERVMRAACALLNSGGGVIRMAKKVEHPVEMGLDLEQSLRELIQSSDLQAFFETKQQGRCFYIFVKSWSSGPFPEDRSVKPRLCSLSSSLYRRSETSVRSMDSREAFCFLKTKRKPKILEEGPFHKIHKGVYQELPNSDPADPNSDPADLIFQKDYLEYGEILPFPASQLVEFKQFSTKHFQEYVKRTIPEYVPAFANTGGGYLFIGVDDKSREVLGCAKENVDPDSLRRKIEQAIYKLPCVHFCQPQRPITFTLKIVNVLKRGELYGYACMIRVNPFCCAVFSEAPNSWIVEDKYVCSLTTEKWVGMMTDTDPDLLQLSEDFECQLSLSSGPPLSRPVYSKKGLEHKKELQQLLFSVPPGYLRYTPESLWRDLISEHRGLEELINKQMQPFFRGILIFSRSWAVDLNLQEKPGVICDALLIAQNSTPILYTILREQDAEGQDYCTRTAFTLKQKLVNMGGYTGKVCVRAKVLCLSPESSAEALEAAVSPMDYPASYSLAGTQHMEALLQSLVIVLLGFRSLLSDQLGCEVLNLLTAQQYEIFSRSLRKNRELFVHGLPGSGKTIMAMKIMEKIRNVFHCEAHRILYVCENQPLRNFISDRNICRAETRKTFLRENFEHIQHIVIDEAQNFRTEDGDWYGKAKSITRRAKGGPGILWIFLDYFQTSHLDCSGLPPLSDQYPREELTRIVRNADPIAKYLQKEMQVIRSNPSFNIPTGCLEVFPEAEWSQGVQGTLRIKKYLTVEQIMTCVADTCRRFFDRGYSPKDVAVLVSTAKEVEHYKYELLKAMRKKRVVQLSDACDMLGDHIVLDSVRRFSGLERSIVFGIHPRTADPAILPNVLICLASRAKQHLYIFPWGGH
notes: Schlafen 11 (SLFN11), human, full length, nuclease active site mutant E209A; Made by site-directed mutagenesis of the wild-type construct; source: Trichoplusia ni High Five insect cells, expressed and purified as the wild-type protein
B2: full-length human SLFN11 (Schlafen 11), wild type (enzyme, UniProt Q7Z7L1 1-901, looked up)
chain: MEANQCPLVVEPSYPDLVINVGEVTLGEENRKKLQKIQRDQEKERVMRAACALLNSGGGVIRMAKKVEHPVEMGLDLEQSLRELIQSSDLQAFFETKQQGRCFYIFVKSWSSGPFPEDRSVKPRLCSLSSSLYRRSETSVRSMDSREAFCFLKTKRKPKILEEGPFHKIHKGVYQELPNSDPADPNSDPADLIFQKDYLEYGEILPFPESQLVEFKQFSTKHFQEYVKRTIPEYVPAFANTGGGYLFIGVDDKSREVLGCAKENVDPDSLRRKIEQAIYKLPCVHFCQPQRPITFTLKIVNVLKRGELYGYACMIRVNPFCCAVFSEAPNSWIVEDKYVCSLTTEKWVGMMTDTDPDLLQLSEDFECQLSLSSGPPLSRPVYSKKGLEHKKELQQLLFSVPPGYLRYTPESLWRDLISEHRGLEELINKQMQPFFRGILIFSRSWAVDLNLQEKPGVICDALLIAQNSTPILYTILREQDAEGQDYCTRTAFTLKQKLVNMGGYTGKVCVRAKVLCLSPESSAEALEAAVSPMDYPASYSLAGTQHMEALLQSLVIVLLGFRSLLSDQLGCEVLNLLTAQQYEIFSRSLRKNRELFVHGLPGSGKTIMAMKIMEKIRNVFHCEAHRILYVCENQPLRNFISDRNICRAETRKTFLRENFEHIQHIVIDEAQNFRTEDGDWYGKAKSITRRAKGGPGILWIFLDYFQTSHLDCSGLPPLSDQYPREELTRIVRNADPIAKYLQKEMQVIRSNPSFNIPTGCLEVFPEAEWSQGVQGTLRIKKYLTVEQIMTCVADTCRRFFDRGYSPKDVAVLVSTAKEVEHYKYELLKAMRKKRVVQLSDACDMLGDHIVLDSVRRFSGLERSIVFGIHPRTADPAILPNVLICLASRAKQHLYIFPWGGH
notes: Schlafen 11 (SLFN11), human, full length; domains: Slfn core 1-353, linker 354-576, helicase 577-901; residues 7-899 built in the model; The construct has an HRV 3C cleavage site after the N-terminal double FLAG tag; The protein was eluted with Flag peptide and no cleavage is described; It is in a monomer-dimer equilibrium in solution; also called SLFN11^wt; source: SEC for cryo-EM samples

Columns and labels:
[1] = target: T1, SLFN5; test: nanoDSF thermal unfolding (Tycho NT.[…]); assay type: binding; conditions: 1 mM nucleotide, 300 nM protein; 25 mM Tris pH 7.5, 60 mM NaCl, 2 mM MgCl2, 1 mM DTT
[2] = target: the molecule itself; test: cryo-EM structure; SLFN11^E209A at 5 uM; 50 mM glycine pH 9, 200 mM NaCl, 2 mM MgCl2, 1 mM DTT; dimer reconstructed in C2 symmetry; monomer reconstructed from another dataset
[3] = target: the molecule itself; test: mass photometry; 50 nM SLFN11 in 25 mM Tris pH 7.5, 2 mM MgCl2, 1 mM DTT with variable concentrations of NaCl; 100 or 300 nM 60 nt ssDNA added in the stabilisation experiment; monomer-dimer equilibrium

Molecule | unfolding temperature increase [1] | other results
Nc1ncnc2c1ncn2[C@@H]1O[C@H](COP(=O)(O)OP(=O)(O)OP(O)(O)=S)[C@@H](O)[C@H]1O [ATPγS] | SLFN5 shows a significant increase in unfolding temperature in presence of ATP and ATPγS | 
Nc1ncnc2c1ncn2[C@@H]1O[C@H](COP(=O)(O)OP(=O)(O)OP(=O)(O)O)[C@@H](O)[C@H]1O [ATP] | SLFN5 shows a significant increase in unfolding temperature in presence of ATP and ATPγS | 
B1 |  | binding result [2]: binds
B2 |  | stoichiometry N [3]: 2
